In PubChem BioAssay AID1259407 (Chemical Carcinogenesis Research Information System (CCRIS), 2018) one finds mutagenic call data, which are given here for six compounds.

This data set deals with CCRIS mutagenicity, Ames/micronucleus/aberration tests. The experiment in a line: CCRIS mutagenicity studies.
Where [1] appears, read: Test System: AMES SALMONELLA TYPHIMURIUM, Strain/Indicator: TA98, Metabolic Activation: NONE, Method: STANDARD PLATE.
Where [2] appears, read: Test System: AMES SALMONELLA TYPHIMURIUM, Strain/Indicator: TA100, Metabolic Activation: NONE, Method: PREINCUBATION
Where [3] appears, read: Test System: AMES SALMONELLA TYPHIMURIUM, Strain/Indicator: TA100, Metabolic Activation: RAT, LIVER, S-9, AROCLOR 1254, Method: PREINCUBATION

Molecules are shown by their SMILES. Activity calls are given as the source filed them. No rule for the calls is given here.

With `Cc1ncc[nH]1`, the mutagenic call is, setting by setting: (End Point: IN VIVO MICRONUCLEUS, Test System: BONE MARROW POLYCHROMATIC ERYTHROCYTES, Species: MOUSE, Strain/Sex: B6C3F1/MALE, Route: IP) “inactive; negative”; (End Point: IN VIVO MICRONUCLEUS, Test System: BONE MARROW POLYCHROMATIC ERYTHROCYTES, Species: RAT, Strain/Sex: F344/N/MALE, Route: IP) “inactive; negative”; (End Point: IN VIVO MICRONUCLEUS, Test System: PERIPHERAL BLOOD NORMOCHROMATIC ERYTHROCYTES, Species: MOUSE, Strain/Sex: B6C3F1/MALE, FEMALE, Route: ORAL (DIET)) “active; positive”; (Test System: AMES SALMONELLA TYPHIMURIUM, Strain/Indicator: TA97, Metabolic Activation: HAMSTER, LIVER, S-9, AROCLOR 1254, Method: PREINCUBATION) “inactive; negative”; (Test System: AMES SALMONELLA TYPHIMURIUM, Strain/Indicator: TA97, Metabolic Activation: NONE, Method: PREINCUBATION) “inactive; negative”; (Test System: AMES SALMONELLA TYPHIMURIUM, Strain/Indicator: TA97, Metabolic Activation: RAT, LIVER, S-9, AROCLOR 1254, Method: PREINCUBATION) “inactive; negative”. Besides, the mutagenic call is, setting by setting: (Test System: AMES SALMONELLA TYPHIMURIUM, Strain/Indicator: TA98, Metabolic Activation: HAMSTER, LIVER, S-9, AROCLOR 1254 (10%), Method: STANDARD PLATE) “inactive; negative”; (Test System: AMES SALMONELLA TYPHIMURIUM, Strain/Indicator: TA98, Metabolic Activation: HAMSTER, LIVER, S-9, AROCLOR 1254, Method: PREINCUBATION) “inactive; negative”; (Test System: AMES SALMONELLA TYPHIMURIUM, Strain/Indicator: TA98, Metabolic Activation: NONE, Method: PREINCUBATION) “inactive; negative”; under setting [1], “inactive; negative”; (Test System: AMES SALMONELLA TYPHIMURIUM, Strain/Indicator: TA98, Metabolic Activation: RAT, LIVER, S-9, AROCLOR 1254 (10%), Method: STANDARD PLATE) “inactive; negative”; (Test System: AMES SALMONELLA TYPHIMURIUM, Strain/Indicator: TA98, Metabolic Activation: RAT, LIVER, S-9, AROCLOR 1254, Method: PREINCUBATION) “inactive; negative”. Besides, the mutagenic call is, setting by setting: (Test System: AMES SALMONELLA TYPHIMURIUM, Strain/Indicator: TA100, Metabolic Activation: HAMSTER, LIVER, S-9, AROCLOR 1254 (10%), Method: STANDARD PLATE) “inactive; negative”; (Test System: AMES SALMONELLA TYPHIMURIUM, Strain/Indicator: TA100, Metabolic Activation: HAMSTER, LIVER, S-9, AROCLOR 1254, Method: PREINCUBATION) “inactive; negative”; under setting [2], “inactive; negative”; (Test System: AMES SALMONELLA TYPHIMURIUM, Strain/Indicator: TA100, Metabolic Activation: NONE, Method: STANDARD PLATE) “inactive; negative”; (Test System: AMES SALMONELLA TYPHIMURIUM, Strain/Indicator: TA100, Metabolic Activation: RAT, LIVER, S-9, AROCLOR 1254 (10%), Method: STANDARD PLATE) “inactive; negative”; under setting [3], “inactive; negative”. Further, the mutagenic call by setting is: (Test System: AMES SALMONELLA TYPHIMURIUM, Strain/Indicator: TA1535, Metabolic Activation: HAMSTER, LIVER, S-9, AROCLOR 1254 (10%), Method: STANDARD PLATE) “inactive; negative”; (Test System: AMES SALMONELLA TYPHIMURIUM, Strain/Indicator: TA1535, Metabolic Activation: HAMSTER, LIVER, S-9, AROCLOR 1254, Method: PREINCUBATION) “inactive; negative”; (Test System: AMES SALMONELLA TYPHIMURIUM, Strain/Indicator: TA1535, Metabolic Activation: NONE, Method: PREINCUBATION) “inactive; negative”; (Test System: AMES SALMONELLA TYPHIMURIUM, Strain/Indicator: TA1535, Metabolic Activation: NONE, Method: STANDARD PLATE) “inactive; negative”; (Test System: AMES SALMONELLA TYPHIMURIUM, Strain/Indicator: TA1535, Metabolic Activation: RAT, LIVER, S-9, AROCLOR 1254 (10%), Method: STANDARD PLATE) “inactive; negative”; (Test System: AMES SALMONELLA TYPHIMURIUM, Strain/Indicator: TA1535, Metabolic Activation: RAT, LIVER, S-9, AROCLOR 1254, Method: PREINCUBATION) “inactive; negative”. Also, the mutagenic call (Test System: AMES SALMONELLA TYPHIMURIUM, Strain/Indicator: TA1537, Metabolic Activation: HAMSTER, LIVER, S-9, AROCLOR 1254 (10%), Method: STANDARD PLATE) is “inactive; negative”; the mutagenic call (Test System: AMES SALMONELLA TYPHIMURIUM, Strain/Indicator: TA1537, Metabolic Activation: NONE, Method: STANDARD PLATE) is “inactive; negative”; the mutagenic call (Test System: AMES SALMONELLA TYPHIMURIUM, Strain/Indicator: TA1537, Metabolic Activation: RAT, LIVER, S-9, AROCLOR 1254 (10%), Method: STANDARD PLATE) was “inactive; negative”; the mutagenic call (Test System: AMES SALMONELLA TYPHIMURIUM, Strain/Indicator: TA1538, Metabolic Activation: HAMSTER, LIVER, S-9, AROCLOR 1254 (10%), Method: STANDARD PLATE) was “inactive; negative”; the mutagenic call (Test System: AMES SALMONELLA TYPHIMURIUM, Strain/Indicator: TA1538, Metabolic Activation: NONE, Method: STANDARD PLATE) was “inactive; negative”; the mutagenic call (Test System: AMES SALMONELLA TYPHIMURIUM, Strain/Indicator: TA1538, Metabolic Activation: RAT, LIVER, S-9, AROCLOR 1254 (10%), Method: STANDARD PLATE) is “inactive; negative”. The mutagenic call runs as follows: (Test System: MOUSE LYMPHOMA, Strain/Indicator: L5178Y (TK+/TK-), Metabolic Activation: NONE, Method: SUSPENSION/PLATE) “inactive; negative. reevaluation of results: inconclusive”; (Test System: MOUSE LYMPHOMA, Strain/Indicator: L5178Y (TK+/TK-), Metabolic Activation: RAT, LIVER, S-9, AROCLOR 1254, Method: SUSPENSION/PLATE) “inactive; negative. reevaluation of results: inconclusive”.
Consider `O=[N+]([O-])[C-]1CCCC1`, for which the mutagenic call is, setting by setting: under setting [2], “active; positive”; (Test System: AMES SALMONELLA TYPHIMURIUM, Strain/Indicator: TA100, Metabolic Activation: RAT, LIVER, S-9, AROCLOR, Method: PREINCUBATION) “active; positive”; (Test System: AMES SALMONELLA TYPHIMURIUM, Strain/Indicator: TA102, Metabolic Activation: NONE, Method: PREINCUBATION) “active; positive”; (Test System: AMES SALMONELLA TYPHIMURIUM, Strain/Indicator: TA102, Metabolic Activation: RAT, LIVER, S-9, AROCLOR, Method: PREINCUBATION) “active; positive”.
For `CN(C)c1ccc(/C=C/C=O)cc1`, the mutagenic call was “inactive; negative” under setting [2] and “inactive; negative” under setting [3].
Turning to `C/C=C(/C)C(=O)O[C@@H]1CCN2CC=C(CO)[C@H]12`, the mutagenic call (Test System: AMES SALMONELLA TYPHIMURIUM, Strain/Indicator: TA100, Metabolic Activation: RAT, LIVER, S-9, SODIUM PHENOBARBITAL AND BETA-NAPHTHOFLAVONE, Method: PREINCUBATION) was “inactive; negative”.
In the case of `CC\C=C/C=C\C=C/C=C\C=C/OCC(C)O` (stereo not given), the mutagenic call under setting [2] was “active; positive”.
With `ONc1ncnc2nc[nH]c12`, the mutagenic call was “active; positive” (Test System: AMES SALMONELLA TYPHIMURIUM, Strain/Indicator: HISG46, Metabolic Activation: NONE, Method: STANDARD PLATE); “active; positive” (Test System: AMES SALMONELLA TYPHIMURIUM, Strain/Indicator: TA97, Metabolic Activation: NONE, Method: STANDARD PLATE); “inactive; negative” (Test System: AMES SALMONELLA TYPHIMURIUM, Strain/Indicator: TA97, Metabolic Activation: RAT, LIVER, S-9, AROCLOR 1254, Method: STANDARD PLATE); “inactive; negative” under setting [1]; “active; positive” (Test System: AMES SALMONELLA TYPHIMURIUM, Strain/Indicator: TA100(TN5-1,8-DNP1011), Metabolic Activation: NONE, Method: STANDARD PLATE); “active; positive” (Test System: AMES SALMONELLA TYPHIMURIUM, Strain/Indicator: TA100(TN5-1,8-DNP1012), Metabolic Activation: NONE, Method: STANDARD PLATE). The mutagenic call by setting is: (Test System: AMES SALMONELLA TYPHIMURIUM, Strain/Indicator: TA100, Metabolic Activation: RAT, LIVER, S-9, AROCLOR 1254, Method: STANDARD PLATE) “inactive; negative”; (Test System: AMES SALMONELLA TYPHIMURIUM, Strain/Indicator: TA1950, Metabolic Activation: NONE, Method: STANDARD PLATE) “active; positive”; (Test System: E.COLI, Strain/Indicator: CM871, Metabolic Activation: NONE, Method: STANDARD PLATE) “active; positive”; (Test System: E.COLI, Strain/Indicator: WP2, Metabolic Activation: NONE, Method: STANDARD PLATE) “active; positive”.
